# Assay results published in patent US12195804B2, “Treatment of squamous cell carcinoma” (Board of Regents, The University of Texas System, priority 2018, dated 2025).
# Key:
# [1] = system: PI3K/mTOR pathway proteins; experiment: Western blot of PI3K/mTOR pathway proteins; format: cell-based, human; conditions: 4 hours, NOTCH1WT and NOTCH1MUT lines
# Method: (§1) FIGS. 7A-7D: PI3K/mTOR signaling inhibition induces cell death in NOTCH1^MUT but not NOTCH1^WT head and neck squamous cell carcinoma (HNSCC) cell lines in vitro. FIG. 7A. Annexin V/propidium iodide or BrDU-terminal deoxynucleotidyl transferase (TdT) dUTP nick-end labeling (TUNEL) assays were used to measure apoptosis in HNSCC cells with the indicated NOTCH1 and PIK3CA mutations, which were treated with 50 nM GSK2126458 (GSK212) for 24 or 48 hours, respectively. Values are the means±standard deviations of three independent experiments. *p<0.05, unpaired two-tailed Student t-test. FIG. 7B. […] At 14-21 days after treatment, the cells were fixed and stained, images were captured using the GelCount Tumour Colony Counter, and colony numbers and the colorimetric intensity of the colonies were determined by measuring the optical density (OD) at 570 nm. […] Three NOTCH1^WT lines (black text and bars) and three NOTCH1^MUT lines (red text and bars) were treated with increasing concentrations of GSK212 for 4 hours, and levels of PI3K/mTOR pathway proteins were measured by Western blot analysis.
# Western blot analysis. […] Protein expression was detected using a horseradish peroxidase-conjugated secondary antibody (Bio-Rad, Hercules, CA) and electrochemiluminescence reagent (Amersham Biosciences, Pittsburg, PA).
# [2] = system: HN31 and UMSCC22A subcutaneous xenografts; experiment: Subcutaneous xenograft models of NOTCH1MUT HNSCC; format: in vivo, athymic nude mice; conditions: 1 mg/kg oral gavage daily 28 days
# Method: FIGS. 8A-8D: PI3K/mTOR pathway inhibitors cause apoptosis and reduce tumor size in NOTCH1^MUT head and neck squamous cell carcinoma (HNSCC) in vivo. FIGS. 8A and 8B. The NOTCH1^MUT cell lines HN31 (FIG. 8A) and UMSCC22A (UM22A; FIG. 8B) were injected subcutaneously (SQ) into athymic nude mice. After tumors reached 150 mm^3, the mice were randomized to receive either vehicle control (2-hydroxypropyl-β-cyclodextrin) or 1 mg/kg GSK2126458 (GSK212) by oral gavage daily for 28 days. Tumor sizes were measured and tumor volumes were calculated at the indicated times, and the percent change in tumor volume at the end of therapy was calculated using the formula (final tumor volume−initial tumor volume/initial tumor volume)×100%. The percentages of TUNEL-positive cells were calculated from image quantification at 40× magnification. FIGS. 8C and 8D. HN31 (FIG. 8C) and UM22A (FIG. 8D) were implanted orthotopically (OT) into the anterior tongues of athymic nude mice. […] Tumor sizes were measured, and tumor volumes and percent changes in tumor volumes were calculated as above. […] The percentages of TUNEL-positive cells were calculated as described above. Data are means±standard deviations from 5 mice per group; p values were calculated using an unpaired t-test with the Welch correction. […]
# [3] = system: HNSCC cell lines; experiment: Colony formation assay; format: cell-based, human; conditions: 48 hours treatment, 14-21 days, NOTCH1MUT compared with NOTCH1WT lines, below peak plasma concentration
# Method: as §1
# Colony formation assays. […] The total colony number and area were counted and analyzed using the ImageJ software program (National Institutes of Health, Bethesda, MD). […]
# [4] = system: HNSCC cell lines; experiment: Apoptosis assays (Annexin V/propidium iodide, BrdU TUNEL, cleaved PARP/caspase 3); format: cell-based, human; conditions: 50 nM
# Method: FIGS. 7A-7D: PI3K/mTOR signaling inhibition induces cell death in NOTCH1^MUT but not NOTCH1^WT head and neck squamous cell carcinoma (HNSCC) cell lines in vitro. FIG. 7A. Annexin V/propidium iodide or BrDU-terminal deoxynucleotidyl transferase (TdT) dUTP nick-end labeling (TUNEL) assays were used to measure apoptosis in HNSCC cells with the indicated NOTCH1 and PIK3CA mutations, which were treated with 50 nM GSK2126458 (GSK212) for 24 or 48 hours, respectively. Values are the means±standard deviations of three independent experiments. *p<0.05, unpaired two-tailed Student t-test. FIG. 7B. Western blotting of cleaved PARP (Cl-PARP) and cleaved caspase 3 (Cl-Caspase 3) levels in mutant and wild type cells after GSK212 treatment for 48 hours. FIG. 7C. NOTCH1^MUT and NOTCH1^WT HNSCC cells were plated sparsely and treated with GSK212 at the indicated concentrations for 48 hours. At 14-21 days after treatment, the cells were fixed and stained, images were captured using the GelCount Tumour Colony Counter, and colony numbers and the colorimetric intensity of the colonies were determined by measuring the optical density (OD) at 570 nm. Values are the means±standard deviations of three independent experiments. *p<0.001, unpaired two-tailed Student t-test. FIG. 7D. Three NOTCH1^WT lines (black text and bars) and three NOTCH1^MUT lines (red text and bars) were treated with increasing concentrations of GSK212 for 4 hours, and levels of PI3K/mTOR pathway proteins were measured by Western blot analysis.
# Western blot analysis. Western blot analysis was performed as described previously (Ferrarotto et al., 2016). In brief, cells were lysed with ice-cold lysis buffer, and the lysates were centrifuged at 20,000×g for 10 minutes at 4° C. Cell samples containing equal amounts of protein were resolved using sodium dodecyl sulfate-polyacrylamide gel electrophoresis, transferred to nitrocellulose membranes, and immunoblotted with different primary antibodies. Protein expression was detected using a horseradish peroxidase-conjugated secondary antibody (Bio-Rad, Hercules, CA) and electrochemiluminescence reagent (Amersham Biosciences, Pittsburg, PA).
# Apoptosis and cell cycle assays. To measure apoptosis, we performed terminal deoxynucleotidyl transferase dUTP nick end labeling (TUNEL) staining with an APO-BRDU Kit (BD Biosciences, San Jose, CA) and Annexin V/propidium iodide staining with an FITC Annexin V Apoptosis Detection Kit (BD Pharmingen, San Diego, CA) as described previously (Chandarlapaty et al., 2011). […] Data were acquired with a three-laser, 10-color Gallios flow cytometer (Beckman Coulter, Brea, CA) and analyzed using Kaluza software (Beckman Coulter, Brea, CA). […]
structure (smiles),measurement,setting,value
COc1ncc(-c2ccc3nccc(-c4ccnnc4)c3c2)cc1NS(=O)(=O)c1ccc(F)cc1F [GSK2126458],target inhibition (PI3K/mTOR pathway proteins),[1],dose-dependent target inhibition
same,apoptosis in tumors (TUNEL staining),[2],significant apoptosis
same,tumor volume,[2],regressed
same,number of colonies formed and total cell number,[3],significantly reduced
same,apoptosis in PDK1-overexpressing versus parental lines,"[4]; 24 or 48 hours, NOTCH1MUT cells overexpressing PDK1",decreased apoptosis
same,apoptosis,"[4]; 24 or 48 hours, NOTCH1MUT lines",induced significant apoptosis
same,apoptosis,[4]; two NOTCH1WT/PIK3CAWT and three NOTCH1WT/PIK3CAMUT lines,no apoptosis was detected
